The source of these data is US20150313228A1, “SYNERGISTIC HERBICIDAL COMBINATIONS AND METHODS OF USE” (priority 2012, published 2015).

Type in all cases: in vivo
The subject of one assay is Johnsongrass. Put plainly: Pre-emergence application in Johnsongrass under greenhouse conditions (Example 5). The conditions noted are these: 16 days after application. From the text:
(§1) The following testing protocol was employed to evaluate the pre-emergence application of herbicides and herbicide combinations as described in the following examples unless otherwise specified. The weed species to be treated were planted in 3.5 inch pots containing a 50:50 silt loam:redi-earth soil mix. Immediately after such planting (i.e., pre-emergence), herbicide was applied to the soil mix at the specified application rate using a track sprayer with a flat even nozzle type, 9501E nozzle size, and spray pressure of 165 kPa. All herbicides were incorporated into the germination zone with 0.25 inch of overhead irrigation three days after spraying. Additional sub-irrigation was provided to achieve adequate soil moisture for germination. After the incorporation of the herbicide(s), the pots were only overhead irrigated as needed. Throughout the test period, temperature was maintained from about 20° C. to about 30° C. and relative humidity was maintained at about 30%. The plants were rated visually and percentage of weed control was determined for each treatment at 19 days after herbicide application.
Pre-emergence application of several herbicides and herbicide combinations was evaluated in Johnsongrass under greenhouse conditions. The plants were rated visually and percentage of weed control was determined at 16 days after herbicide application. The herbicides and herbicide combinations evaluated are listed in Table 5-A below together with the corresponding percent control data. The data represent an average value (n=6).
The results of the analysis are reported below in Table 5-B (dicamba+metribuzin), Table 5-C(acetochlor+metribuzin), and Table 5-D (acetochlor+dicamba).

Assay [1] deals with Palmer amaranth. Put plainly: Pre-emergence application in Palmer amaranth under greenhouse conditions (Example 1). The conditions noted are these: 18 days after application.
Description: as §1
Pre-emergence application of several herbicides and herbicide combinations was evaluated in Palmer amaranth under greenhouse conditions. The plants were rated visually and percentage of weed control was determined at 18 days after herbicide application. The herbicides and herbicide combinations evaluated are listed in Table 1-A below together with the corresponding percent control data. The data represent an average value (n=6).
The results of the analysis are reported below in Table 1-B (dicamba+metribuzin), Table 1-C(acetochlor+metribuzin), and Table 1-D (acetochlor+dicamba).

A further assay relates to sicklepod. Nature of the assay: Pre-emergence application in sicklepod under greenhouse conditions (Example 4). The note with it: 18 days after application.
Description: as §1
Pre-emergence application of several herbicides and herbicide combinations was evaluated in sicklepod under greenhouse conditions. The plants were rated visually and percentage of weed control was determined at 18 days after herbicide application. The herbicides and herbicide combinations evaluated are listed in Table 4-A below together with the corresponding percent control data. The data represent an average value (n=6).
The results of the analysis are reported below in Table 4-B (dicamba+metribuzin), Table 4-C(acetochlor+metribuzin), and Table 4-D (acetochlor+dicamba).

For another assay, the system named is wild Proso millet. Nature of the assay: Pre-emergence application in wild Proso millet under greenhouse conditions (Example 3). The note with it: 16 days after application.
Description: as §1
Pre-emergence application of several herbicides and herbicide combinations was evaluated in wild Proso millet under greenhouse conditions. The plants were rated visually and percentage of weed control was determined at 16 days after herbicide application. The herbicides and herbicide combinations evaluated are listed in Table 3-A below together with the corresponding percent control data. The data represent an average value (n=6).
The results of the analysis are reported below in Table 3-B (dicamba+metribuzin), Table 3-C (acetochlor+metribuzin), and Table 3-D (acetochlor+dicamba).

The next assay deals with morning glory. Put plainly: Pre-emergence application in morning glory under greenhouse conditions (Example 2). The note with it: 18 days after application.
Description: as §1
Pre-emergence application of several herbicides and herbicide combinations was evaluated in morning glory under greenhouse conditions. The plants were rated visually and percentage of weed control was determined at 18 days after herbicide application. The herbicides and herbicide combinations evaluated are listed in Table 2-A below together with the corresponding percent control data. The data represent an average value (n=6).
The results of the analysis are reported below in Table 2-B (dicamba+metribuzin), Table 2-C(acetochlor+metribuzin), and Table 2-D (acetochlor+dicamba).

The next assay deals with ryegrass. Nature of the assay: Pre-emergence application in ryegrass under greenhouse conditions (Example 6). The note with it: 16 days after application.
Description: as §1
Pre-emergence application of several herbicides and herbicide combinations was evaluated in ryegrass under greenhouse conditions. The plants were rated visually and percentage of weed control was determined at 16 days after herbicide application. The herbicides and herbicide combinations evaluated are listed in Table 6-A below together with the corresponding percent control data. The data represent an average value (n=6).
The results of the analysis are reported below in Table 6-B (dicamba+metribuzin), Table 6-C(acetochlor+metribuzin), and Table 6-D (acetochlor+dicamba).

The next assay has as its system velvetleaf. Nature of the assay: Post-emergence application in velvetleaf under greenhouse conditions (Example 8). The text has this:
(§2) The following testing protocol was employed to evaluate the post-emergence application of herbicides and herbicide combinations as described in the following examples unless otherwise specified. The weed species to be treated were planted in 3.5 inch pots containing redi-earth potting mix and grown under greenhouse conditions. When the weed species reached a height of about four inches, herbicide was applied at the specified application rate using a track sprayer with a flat even nozzle type, 9501E nozzle size, and spray pressure of 165 kPa. After the application of the herbicide(s), the pots were only sub-irrigated as needed. Throughout the test period, temperature was maintained from about 20° C. to about 30° C. and relative humidity was maintained at about 30%. The plants were rated visually and percentage of weed control was determined for each treatment at 15 to 21 days after herbicide application.
Post-emergence application of several herbicides and herbicide combinations was evaluated in velvetleaf under greenhouse conditions. The plants were rated visually and percentage of weed control was determined at 24 days after herbicide application. The herbicides and herbicide combinations evaluated are listed in Table 8-A below together with the corresponding percent control data. The data represent an average value (n=6).
The results of the analysis are reported below in Table 8-B (glyphosate+dicamba), Table 8-C(glyphosate+metribuzin), and Table 8-D (dicamba+metribuzin).

The subject of assay [2] is Palmer amaranth. Put plainly: Post-emergence application in Palmer amaranth under greenhouse conditions (Example 7). The conditions noted are these: 24 days after application.
Description: as §2
Post-emergence application of several herbicides and herbicide combinations was evaluated in Palmer amaranth under greenhouse conditions. The plants were rated visually and percentage of weed control was determined at 24 days after herbicide application. The herbicides and herbicide combinations evaluated are listed in Table 7-A below together with the corresponding percent control data. The data represent an average value (n=6).
The results of the analysis are reported below in Table 7-B (glyphosate+dicamba), Table 7-C(glyphosate+metribuzin), and Table 7-D (dicamba+metribuzin).

The structures appear in SMILES notation.

Consider `CCOCN(C(=O)CCl)c1c(C)cccc1CC` [Acetochlor, 2-chloro-N-(ethoxymethyl)-6′-ethyl-o-acetotoluidide], for which the “PERCENT CONTROL” value in the assay with Johnsongrass (840 g/ha) is recorded as 94.8%; in the assay with Johnsongrass (1260 g/ha) it was 100.0%; with Palmer amaranth [1] (840 g/ha), 65.8%; with Palmer amaranth [1] (1260 g/ha) it was 90.8%; with sicklepod (840 g/ha), 4.0%; in the assay with sicklepod (1260 g/ha) it was 5.8%. For the same molecule, the “PERCENT CONTROL” value in the assay with wild Proso millet (840 g/ha) is given as 74.2%; in the assay with wild Proso millet (1260 g/ha), 84.0%; in the assay on morning glory (840 g/ha), 5.0%; with morning glory (1260 g/ha) it was 7.5%; in the assay with ryegrass (840 g/ha), 82.5%; with ryegrass (1260 g/ha), 86.7%.

As for `COc1c(Cl)ccc(Cl)c1C(=O)O` [Dicamba, 3,6-dichloro-2-methoxy benzoic acid], the “PERCENT CONTROL (ACTUAL)” value in the assay with velvetleaf (280 g/ha, 24 days after application) is on record as 82.0%; in the assay on velvetleaf (560 g/ha, 24 days after application), 95.0%; in the assay with velvetleaf (Table 8-D, velvetleaf, 24 days, dose 280 g/ha) it was 82.0%; in the assay on velvetleaf (Table 8-D, velvetleaf, 24 days, dose 560 g/ha), 95.0%. For the same molecule, the “PERCENT CONTROL” value with Johnsongrass (280 g/ha) came out at 71.7%; in the assay on Johnsongrass (560 g/ha) it was 83.3%; with Palmer amaranth [1] (280 g/ha) it was 88.3%; with Palmer amaranth [1] (560 g/ha) it was 84.2%; in the assay with sicklepod (280 g/ha), 42.0%; in the assay with sicklepod (560 g/ha), 84.0%. Besides, the “PERCENT CONTROL” value in the assay with wild Proso millet (280 g/ha) is listed as 43.3%; with wild Proso millet (560 g/ha), 74.2%; in the assay with morning glory (280 g/ha), 38.0%; in the assay on morning glory (560 g/ha), 81.7%; in the assay on ryegrass (280 g/ha), 31.7%; in the assay on ryegrass (560 g/ha) it was 56.7%. Also, the “PERCENT CONTROL” value with Palmer amaranth [2] (280 g/ha) and with Palmer amaranth [2] (560 g/ha) was 100.0% throughout.

For the molecule `CSc1nnc(C(C)(C)C)c(=O)n1N` [Metribuzin, 4-amino-6-(1,1-dimethylethyl)-3-(methylthio)-1,2,4-triazin-5(4H)-one], the “PERCENT CONTROL (ACTUAL)” value in the assay on velvetleaf (Table 8-C, velvetleaf, 24 days, dose 420 g/ha) is 22.0%; in the assay with velvetleaf (Table 8-C, velvetleaf, 24 days, dose 840 g/ha), 68.0%; with velvetleaf (Table 8-D, velvetleaf, 24 days, dose 420 g/ha), 22.0%; in the assay on velvetleaf (Table 8-D, velvetleaf, 24 days, dose 840 g/ha), 68.0%. Further, the “PERCENT CONTROL” value in the assay on Johnsongrass (420 g/ha) came out at 84.2%; in the assay on Johnsongrass (840 g/ha) it was 100.0%; in the assay on Palmer amaranth [1] (420 g/ha) it was 100.0%; in the assay on Palmer amaranth [1] (840 g/ha), 100.0%; with sicklepod (420 g/ha) it was 56.7%; in the assay with sicklepod (840 g/ha) it was 100.0%. For the same molecule, the “PERCENT CONTROL” value with wild Proso millet (420 g/ha) was 100.0%; in the assay with wild Proso millet (840 g/ha), 100.0%; in the assay on morning glory (420 g/ha), 16.7%; in the assay with morning glory (840 g/ha), 63.8%; with ryegrass (420 g/ha), 33.3%; in the assay on ryegrass (840 g/ha), 66.7%. Moreover, the “PERCENT CONTROL” value with Palmer amaranth [2] (420 g/ha) is listed as 20.0%; with Palmer amaranth [2] (840 g/ha), 26.0%.
